Laboratory results taken from US4436733A, “4"- And 3-ester derivatives of DMT and DMOT” (Eli Lilly and Company, priority 1982, dated 1984).
Like-named read-outs stand apart in the source and are kept apart here.

What was measured:
[1] = tested on: Streptococcus Group D X66; experiment: standard agar-dilution assay, MIC; type: cell-based
Protocol: (§1) The MIC's in Table III were determined by standard agar-dilutionassays. The MIC's in Table IV were obtained using a conventional broth-dilution microtiter test.

Streptococcus Group 9960 = experiment: standard agar-dilution assay, MIC; type: cell-based
Protocol: as §1

[2] = tested on: Staphylococcus aureus S13E; experiment: standard agar-dilution assay, MIC; type: cell-based
Protocol: as §1

[3] = tested on: Streptococcus pyogenes C203; experiment: standard agar-dilution assay, MIC; type: cell-based
Protocol: as §1

[4] = tested on: Staphylococcus aureus X1.1; experiment: standard agar-dilution assay, MIC; type: cell-based
Protocol: as §1

[5] = tested on: Streptococcus pneumoniae Park I; experiment: standard agar-dilution assay, MIC; type: cell-based
Protocol: as §1

[6] = tested on: Staphylococcus epidermidis EPI2; experiment: standard agar-dilution assay, MIC; type: cell-based
Protocol: as §1

[7] = tested on: Staphylococcus epidermidis EPI1; experiment: standard agar-dilution assay, MIC; type: cell-based
Protocol: as §1

[8] = tested on: Staphylococcus aureus X400; experiment: standard agar-dilution assay, MIC; type: cell-based; settings: Staphylococcus aureus X400, methicillin resistant strain
Protocol: as §1
^c Methicillinresistant-strain

Staphylococcus aureus = experiment: conventional broth-dilution microtiter test, MIC; type: cell-based
Protocol: as §1

Streptococcus sp. 80 = experiment: conventional broth-dilution microtiter test, MIC; type: cell-based
Protocol: as §1

[9] = tested on: Pasteurella multocida 60A; experiment: conventional broth-dilution microtiter test, MIC; type: cell-based; settings: avian isolate
Protocol: as §1

[10] = tested on: Pasteurella multocida 17E; experiment: conventional broth-dilution microtiter test, MIC; type: cell-based; settings: bovine isolate
Protocol: as §1

Mycoplasma hyorhinis = experiment: conventional broth-dilution microtiter test, MIC; type: cell-based
Protocol: as §1

Mycoplasma synoviae = experiment: conventional broth-dilution microtiter test, MIC; type: cell-based
Protocol: as §1

Mycoplasma gallisepticum = experiment: conventional broth-dilution microtiter test, MIC; type: cell-based
Protocol: as §1

[11] = tested on: Staphylococcus aureus V41; experiment: standard agar-dilution assay, MIC; type: cell-based; settings: Staphylococcus aureus V41, penicillin resistant strain
Protocol: as §1
^b Penicillinresistant strain

[12] = tested on: Streptococcus pyogenes C203; experiment: experimental bacterial infection in mice, ED50; type: in vivo; settings: read-out: ED50 (effective dose to protect 50% of the test animals)
Protocol: The ester derivatives of this invention have shown in vivo antimicrobial activity against experimental bacterial infections caused by gram-positivebacteria. When two doses of test compound were administered to mice with experimental infections, the activity observed was measured as an ED50 value [effective dose in mg/kg to protect 50% of the test animals: see Warren Wick, et al., J. Bacteriol. 81, 233-235 (1961)].
^a mg/kg × 2; doses given 1 and 5 hours postinfection

[13] = C203, mice, oral, doses given 1 and 5 hours postinfection
[14] = C203, sc, mice, subcutaneous, doses given 1 and 5 hours postinfection

Compound	MIC (minimal inhibitory concentration) [1]	MIC (minimal inhibitory concentration) (Streptococcus Group 9960)	MIC (minimal inhibitory concentration) [2]	MIC (minimal inhibitory concentration) [3]	MIC (minimal inhibitory concentration) [4]	MIC (minimal inhibitory concentration) [5]	MIC (minimal inhibitory concentration) [6]	MIC (minimal inhibitory concentration) [7]	MIC (minimal inhibitory concentration) [8]	MIC (minimal inhibitory concentration) (Staphylococcus aureus)	MIC (minimal inhibitory concentration) (Streptococcus sp. 80)	MIC (minimal inhibitory concentration) [9]	MIC (minimal inhibitory concentration) [10]	MIC (minimal inhibitory concentration) (Mycoplasma hyorhinis)	MIC (minimal inhibitory concentration) (Mycoplasma synoviae)	MIC (minimal inhibitory concentration) (Mycoplasma gallisepticum)	MIC (minimal inhibitory concentration) [11]	ED50 [12, 13] [mg/kg]	ED50 [12, 14] [mg/kg]	ED50 ([12]; C203, po) [mg/kg]
CCC(=O)OCC1C=C(C)C=CC(=O)C(C)CC(CC=O)C(OC2OC(C)C(OC3CC(C)(O)C(OC(=O)CC)C(C)O3)C(N(C)C)C2OC(C)=O)C(C)C(O)CC(=O)OC1CC (stereo not shown) [Compound 3, 2'-O-Acetyl-23,4"-Di-O-Propionyl-DMT]	1	1	0.5	0.25	0.5	0.125	1	0.5	1	0.78	0.78	12.5	12.5	0.39	0.78	0.097	1			
CCC(=O)OCC1C=C(C)C=CC(=O)C(C)CC(CC=O)C(OC2OC(C)C(OC3CC(C)(O)C(OC(=O)CC)C(C)O3)C(N(C)C)C2O)C(C)C(O)CC(=O)OC1CC (stereo not shown) [Compound 4, 23,4"-Di-O-Propionyl-DMT]	1	0.5	0.5	0.25	0.5	0.06	1	0.5	1	0.78	1.56	25	12.5	0.78	0.39	0.195	1	> 150	12	
CCC1OC(=O)CC(O)C(C)C(OC2OC(C)C(OC3CC(C)(O)C(OC(=O)Cc4ccccc4)C(C)O3)C(N(C)C)C2OC(C)=O)C(CC=O)CC(C)C(=O)C=CC(C)=CC1COC(=O)Cc1ccccc1 (stereo not shown) [Compound 5, 2'-O-Acetyl-23,4"-Di-O-Phenylacetyl-DMT]	2	2	1		1		2	1	2	50	1.56	> 50	> 50	6.25	12.5	1.56	1			> 144
CCC1OC(=O)CC(O)C(C)C(OC2OC(C)C(OC3CC(C)(O)C(OC(=O)COc4ccccc4)C(C)O3)C(N(C)C)C2OC(C)=O)C(CC=O)CC(C)C(=O)C=CC(C)=CC1COC(=O)COc1ccccc1 (stereo not shown) [Compound 7, 2'-O-Acetyl-4",23-Di-O-Phenoxyacetyl-DMT]	32	16	32	8	32	1	128	32	64	12.5	0.78	> 50	> 50	0.78		0.78	64			
CCC1OC(=O)CC(OC(=O)COc2ccccc2)C(C)C(OC2OC(C)C(OC3CC(C)(O)C(O)C(C)O3)C(N(C)C)C2OC(C)=O)C(CC=O)CC(C)C(=O)C=CC(C)=CC1COC(=O)COc1ccccc1 (stereo not shown) [Compound 8, 2'-O-Acetyl-3,23-Di-O-Phenoxyacetyl-DMT]	0.5	0.25	0.5	0.125	0.5	0.125	1	1	1								1			
CCC(=O)OCC1C=C(C)C=CC(=O)C(C)CC(CC=O)C(OC2OC(C)C(OC3CC(C)(O)C(OC(=O)CC)C(C)O3)C(N(C)C)C2OC(C)=O)C(C)C(OC(=O)CC)CC(=O)OC1CC (stereo not shown) [Compound 9, 2'-O-Acetyl-3,23,4"-Tri-O-Propionyl-DMT]	1	1	1	0.5	1	0.25	2	1	1	1.56	1.56	> 50	> 50	0.78	0.78	0.78	1			
CCC(=O)OCC1C=C(C)C=CC(=O)C(C)CC(CC=O)C(OC2OC(C)C(OC3CC(C)(O)C(OC(=O)CC)C(C)O3)C(N(C)C)C2O)C(C)C(OC(=O)CC)CC(=O)OC1CC (stereo not shown) [Compound 10, 3,23,4"-Tri-O-Propionyl-DMT]	1	1	0.5	0.25	0.5	0.125	2	1	1	1.56	1.56	50	25	0.78	0.39	≤ 0.05	1	> 150	13	
CCC1OC(=O)CC(O)C(C)C(OC2OC(C)C(OC3CC(C)(O)C(OC(=O)Cc4ccccc4)C(C)O3)C(N(C)C)C2OC(C)=O)C(CC=O)CC(C)C(=O)C=CC(C)=CC1C (stereo not shown) [Compound 20, 2'-O-Acetyl-4"-O-Phenylacetyl-DMOT]	> 128	> 128	> 128	128	> 128	32	> 128	> 128	> 128	25	50	50	50	50	50	6.25	> 128			
CCC1OC(=O)CC(O)C(C)C(OC2OC(C)C(OC3CC(C)(O)C(OC(=O)Cc4ccccc4)C(C)O3)C(N(C)C)C2O)C(CC=O)CC(C)C(=O)C=CC(C)=CC1C (stereo not shown) [Compound 21, 4"-O-Phenylacetyl-DMOT]	8	16	8	4	8	0.5	16	8	16	12.5	6.25	50	> 50	3.12	6.25	0.78	16			
